pIC50: −log10 of the molar value.

In assay [1] the target is T1, Purified recombinant ADAMTS-7 (rat prodomain/human catalytic domain, SEQ ID No. 01 or 02) (Homo sapiens, UniProt Q9UKP4).
T1 construct: rat ADAMTS-7 signal peptide + prodomain (rat 1-217, Q1EHB3) (N); 2xStrep tag (C); 6xHis tag (C); made in house; host or cells: Expi293 cells
T1 sequence (Q9UKP4 237-537): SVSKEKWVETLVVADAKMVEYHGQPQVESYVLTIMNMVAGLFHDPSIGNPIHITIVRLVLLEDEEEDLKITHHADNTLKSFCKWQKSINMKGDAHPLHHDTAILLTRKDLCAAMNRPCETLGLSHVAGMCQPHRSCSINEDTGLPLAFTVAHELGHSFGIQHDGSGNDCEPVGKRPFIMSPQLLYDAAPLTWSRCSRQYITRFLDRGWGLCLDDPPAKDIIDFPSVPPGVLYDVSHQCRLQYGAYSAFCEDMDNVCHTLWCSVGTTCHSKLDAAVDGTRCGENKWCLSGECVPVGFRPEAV
Briefly: Assay for ADAMTS-7 enzymatic activity (FRET substrate cleavage). The class given is biochemical. The note with it: FRET substrate SEQ ID No. 11, 120 min at 32° C.; read-out: ADAMTS7-IC50. Here is the method: Purified recombinant ADAMTS-7 (as of SEQ ID No. 01 or SEQ ID No. 02) was diluted in reaction buffer (20 mM HEPES pH 8.0, 150 mM NaCl, 5 mM CaCl2, 0.004% Brij, 10 μM ZnCl2) fora concentration of approximately 20 nM. 25 μl of the solution were transferred into each well of a 384-well white microtiter plate (Greiner Bio-One 781075) and 1 μl test compound solution (modulator/inhibitor dissolved in DMSO, at the corresponding concentration) or pure DMSO as a control were added per well. […] Amino acids […] are derived from Thrombospondin-1 sequence (275-289). An additional carboxyl glutamic acid was added after the QXL520 quencher to increase substrate solubility. The microtiter plate was incubated for 120 min at the temperature of 32° C. The increase of fluorescence intensity was measured in appropriate fluorescence plate reader (e.g. TECAN Ultra) using excitation wavelength of 485 nm and emission wavelength of 520 nm. IC50 values were calculated from percentage of inhibition of ADAMTS-7 activity as a function of test compound concentration.

The target of assay [2] is T2, ADAMTS4 (Homo sapiens, UniProt O75173).
T2 construct: purchased R&D 4307-AD
T2 sequence (O75173 213-685 limits assumed): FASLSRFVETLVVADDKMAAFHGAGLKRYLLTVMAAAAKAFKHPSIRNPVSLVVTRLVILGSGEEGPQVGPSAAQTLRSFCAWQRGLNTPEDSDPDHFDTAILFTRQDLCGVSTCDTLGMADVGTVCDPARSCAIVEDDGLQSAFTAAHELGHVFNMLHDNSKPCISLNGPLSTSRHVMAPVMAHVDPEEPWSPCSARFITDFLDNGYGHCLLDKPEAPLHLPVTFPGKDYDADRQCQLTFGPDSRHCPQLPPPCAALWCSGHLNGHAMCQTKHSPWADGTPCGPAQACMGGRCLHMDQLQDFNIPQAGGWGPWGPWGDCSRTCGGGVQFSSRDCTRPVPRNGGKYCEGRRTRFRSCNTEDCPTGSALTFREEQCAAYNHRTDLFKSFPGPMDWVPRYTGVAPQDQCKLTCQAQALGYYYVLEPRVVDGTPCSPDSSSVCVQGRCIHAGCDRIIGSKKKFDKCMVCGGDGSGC
Nature of the assay: Selectivity assay for ADAMTS-7 modulators (FRET), ADAMTS4. The note with it: 50 nM enzyme (R&D 4307-AD), 1 μM Dabcyl/Edans FRET substrate, 120 min at 32° C. It counts as biochemical. Here is the method:
The respective enzyme (see table 2 below) was diluted in reaction buffer (50 mM Tris, 2.5 μM ZnCl2, 0.05% BSA, 0.001% Brij, pH 7.5 for ADAM17; 50 mM Tris 7.5, 150 mM NaCl, 10 mM CaCl2, 0.05% Brij for all other enzymes) to the respective concentration and 25 μl were transferred into each well of a 384-well white microtiter plate (Greiner Bio One 781075). 1 μl test compound solution (dissolved in DMSO, at the corresponding concentration) or pure DMSO as a control was added per well. The enzymatic reaction was initiated by addition of 25 μl of the respective concentration of the respective FRET substrate (see table 2 below) in reaction buffer. The microtiter plate was incubated for 120 min at the temperature of 32° C. The increase of fluorescence intensity was measured in appropriate fluorescence plate reader (e.g. TECAN Ultra) using the respective wavelengths for excitation and emission. IC50 values were calculated from percentage of inhibition of enzyme activity as a function of test compound concentration.

Turning to `O=C1NC(=O)C(CNC(=O)c2cnn(-c3ccccc3)n2)(C2CCC2)N1` (racemic) [Example 52, rac-N-[4-cyclobutyl-2,5-dioxoimidazolidin-4-yl)methyl]-2-phenyl-2H-1,2,3-triazole-4-carboxamide], the pIC50 (commonly the IC50 on a negative log10 scale, so that one unit is a factor of ten) is 7.26 in assay [1] and 4.85 in assay [2].
With `O=C1NC(=O)C(CNC(=O)c2cnn(-c3ccccc3)n2)(CC2CC2)N1` (racemic) [Example 54, rac-N-[(4-(cyclopropylmethyl)-2,5-dioxoimidazolidin-4-yl)methyl}]-2-phenyl-2H-1,2,3-triazole-4-carboxamide], the figures for the pIC50 in assay [1] and in assay [2] were 6.17 and 4.60, respectively.
The matching figures for `CCCC1(CNC(=O)c2cnn(-c3ccccc3)n2)NC(=O)NC1=O` (racemic) [Example 55, rac-N-[(2,5-dioxo-4-propylimidazolidin-4-yl)methyl]-2-phenyl-2H-1,2,3-triazole-4-carboxamide]: 6.62 and 4.72.
The corresponding values for `CC(C)(C)C1(CNC(=O)c2cnn(-c3ccccc3)c2)NC(=O)NC1=O` (racemic) [Example 58, rac-N-[4-tert-butyl-2,5-dioxoimidazolidin-4-yl)methyl]-1-phenyl-1H-pyrazole-4-carboxamide] are 6.26 and 5.25.
The matching figures for `O=C1NC(=O)C(CNC(=O)c2cnn(-c3ccccc3)n2)(C2CCOCC2)N1` (racemic) [Example 61, rac-N-[(4-(oxan-4-yl)-2,5-dioxoimidazolidin-4-yl)methyl]-2-phenyl-2H-1,2,3-triazole-4-carboxamide]: 6.89 and 5.00.
As for `CC(C)C1(CNC(=O)c2cnn(-c3ccc(F)cc3)n2)NC(=O)NC1=O` (racemic) [Example 62, rac-N-[(2,5-dioxo-4-(propan-2-yl)imidazolidin-4-yl)methyl]-2-(4-fluorophenyl)-2H-1,2,3-triazole-4-carboxamide], the pIC50 is 7.38 in assay [1] and 4.80 in assay [2].
Turning to `CC(C)(C)C1(CNC(=O)c2cnn(-c3ccc(F)cc3)n2)NC(=O)NC1=O` (racemic) [Example 63, rac-N-[(4-tert-butyl-2,5-dioxoimidazolidin-4-yl)methyl]-2-(4-fluorophenyl)-2H-1,2,3-triazole-4-carboxamide], the values for the pIC50 in assay [1] and in assay [2] were 7.16 and 5.22, respectively.
The corresponding values for `CCCC1(CNC(=O)c2cnn(-c3ccc(F)cc3)n2)NC(=O)NC1=O` (racemic) [Example 65, rac-N-[(2,5-dioxo-4-propylimidazolidin-4-yl)methyl]-2-(4-fluorophenyl)-2H-1,2,3-triazole-4-carboxamide] are 6.77 and 4.72.
The matching figures for `O=C1NC(=O)C(CNC(=O)c2cnn(-c3ccc(F)cc3)n2)(C2CCOCC2)N1` (racemic) [Example 67, rac-2-(4-fluorophenyl)-N-[4-(oxan-4-yl)-2,5-dioxoimidazolidin-4-yl)methyl]-2H-1,2,3-triazole-4-carboxamide]: 6.59 and 5.03.
The corresponding values for `CCCCC1(CNC(=O)c2cnn(-c3ccc(F)cc3)n2)NC(=O)NC1=O` (racemic) [Example 68, rac-N-[(4-butyl-2,5-dioxoimidazolidin-4-yl)methyl]-2-(4-fluorophenyl)-2H-1,2,3-triazole-4-carboxamide] are 6.92 and 5.08.
Regarding `O=C1NC(=O)C(CNC(=O)c2cnn(-c3ccc(F)cc3)n2)(C2CCC2)N1` (racemic) [Example 69, rac-N-[(4-cyclobutyl-2,5-dioxoimidazolidin-4-yl)methyl]-2-(4-fluorophenyl)-2H-1,2,3-triazole-4-carboxamide], the pIC50 in assay [1] is 7.01; in assay [2] it was 4.46.
The matching figures for `CC(C)C1(CNC(=O)c2cnn(-c3ccc(F)cc3F)n2)NC(=O)NC1=O` (racemic) [Example 87, rac-2-(2,4-difluorophenyl)-N-[(4-isopropyl-2,5-dioxoimidazolidin-4-yl)methyl]-2H-1,2,3-triazole-4-carboxamide]: 7.01 and 4.70.
The matching figures for `CC(C)C1(CNC(=O)c2cnn(-c3cc(F)c(F)c(F)c3)n2)NC(=O)NC1=O` (racemic) [Example 99, rac-N-[(4-isopropyl-2,5-dioxoimidazolidin-4-yl)methyl]-2-(3,4,5-trifluorophenyl)-2H-1,2,3-triazole-4-carboxamide]: 7.28 and 5.22.
In the case of `Cc1scnc1C1(CNC(=O)c2cnn(-c3ccc(F)cc3)n2)NC(=O)NC1=O` (racemic) [Example 100, rac-2-(4-fluorophenyl)-N-{[4-(5-methyl-1,3-thiazol-4-yl)-2,5-dioxoimidazolidin-4-yl]methyl}-2H-1,2,3-triazole-4-carboxamide], the figures for the pIC50 in assay [1] and in assay [2] were 8.10 and 6.17, respectively.
The corresponding values for `O=C1NC(=O)C(CNC(=O)c2cnn(-c3cccc(F)c3)n2)(c2nccs2)N1` (racemic) [Example 108, rac-N-{[2,5-dioxo-4-(1,3-thiazol-2-yl)imidazolidin-4-yl]methyl}-2-(3-fluorophenyl)-2H-1,2,3-triazole-4-carboxamide] are 7.92 and 6.22.
The corresponding values for `O=C1NC(=O)C(CNC(=O)c2cnn(-c3ccc(Cl)c(F)c3)n2)(c2nccs2)N1` (racemic) [Example 109, rac-2-(4-chloro-3-fluorophenyl)-N-{[2,5-dioxo-4-(1,3-thiazol-2-yl)imidazolidin-4-yl]methyl}-2H-1,2,3-triazole-4-carboxamide] are 7.72 and 5.96.
The matching figures for `O=C1NC(=O)C(CNC(=O)c2cnn(-c3ccc(F)c(Cl)c3)n2)(c2nccs2)N1` (racemic) [Example 111, rac-2-(3-chloro-4-fluorophenyl)-N-{[2,5-dioxo-4-(1,3-thiazol-2-yl)imidazolidin-4-yl]methyl}-2H-1,2,3-triazole-4-carboxamide]: 7.46 and 5.92.
Take `O=C1NC(=O)C(CNC(=O)c2cnn(-c3ccc(F)cc3)n2)(c2nccs2)N1` (racemic) [Example 113, rac-N-{[2,5-dioxo-4-(1,3-thiazol-2-yl)imidazolidin-4-yl]methyl}-2-(4-fluorophenyl)-2H-1,2,3-triazole-4-carboxamide]: the pIC50 in assay [1] is 7.41; in assay [2], 5.62.
`O=C1NC(=O)C(CNC(=O)c2cnn(-c3ccc(F)cc3F)n2)(c2nccs2)N1` (racemic) [Example 115, rac-2-(2,4-difluorophenyl)-N-{[2,5-dioxo-4-(1,3-thiazol-2-yl)imidazolidin-4-yl]methyl}-2H-1,2,3-triazole-4-carboxamide]: the pIC50 is 7.06 in assay [1] and 5.18 in assay [2].
The matching figures for `CC(C)C1(CNC(=O)c2cnn(-c3cccc(F)c3)n2)NC(=O)NC1=O` (racemic) [Example 118, rac-2-(3-fluorophenyl)-N-[(4-isopropyl-2,5-dioxoimidazolidin-4-yl)methyl]-2H-1,2,3-triazole-4-carboxamide]: 7.34 and 5.35.

For the origin of these results see patent publication US20230027985A1, “SUBSTITUTED HYDANTOINAMIDES AS ADAMTS7 ANTAGONISTS” (Bayer Aktiengesellschaft, priority 2019, published 2023).
